Source: US6653327B2, “Cross-regulin composition of tumeric-derived tetrahydrocurcuminoids for skin lightening and protection against UVB rays” (Sabinsa Corporation, priority 1999, dated 2003)

Tests used:
TPA-induced ear edema = TPA-induced ear edema in mice (ear punch weight); assay type: in vivo, Female CF-1 mice; settings: 5 hours; for Wg/punch: mean SE
Method: Applicants have postulated that the crossregulin composition of the invention is an optimal composition for protecting and preserving healthy living cells and for preventing cytoskeletons of the healthy living cells from being damaged by TPA and TPA-like tumor promoters. In an experiment conducted in vivo, the ear skin of Female CF-1 mice was treated with either 20 microliters acetone, TPA in acetone or TPA with Tetrahydrocurcuminoids of the invention [THC1], known Tetrahydrocurcuminoids [THC2] and known pure (synthetic) Tetrahydrocurcumin [THC3].
Five hours later the mice were sacrificed and ear punches were weighted (the higher the weight, score the more severe the inflammation of the treated ear-skin). Based on the weight score of the ear punches, the percent of inflammation inhibition was calculated. Protection against inflammation in decreasing order was furnished by THC1 of the invention, followed by THC2 of the prior art, and finally followed by THC3. […] Prior art, as exemplified by the research data, cannot accomplish inhibition of the TPA induced ear edema above 80%. More than 80% inhibition of TPA-induced ear edema is necessary to prevent crosslinking of proteins which could trigger skin cancer. Therefore crossregulin action is not an inherent part of just any composition of THCs, but it is a specific composition that affords inhibition of the TPA mechanism by more than 80%.

[1] = system: UVB-induced sunburn cells and p21 protein in epidermis; assay: UVB-induced formation of sunburn cells and p21 protein levels in epidermis; assay type: in vivo, SKH-1 mice; settings: 8 hours after UVB
Method: Female Sencar mice (5 mice per group) were treated topically with 100 ul acetone or inhibitor in acetone at 5 min before a single dose of UVB (60 mJ/cm2) irradiation. The mice were killed 8 hours after UVB irradiation, and the skin biopsies were evaluated for sunburn cells and p21 protein.

[2] = 10 uM topical 5 min before UVB (60 mJ/cm2)
[3] = 20 uM topical 5 min before UVB (60 mJ/cm2)

| SMILES | Wg/punch (TPA-induced ear edema; dose 0.36 mg topical with TPA (1 nmol) in acetone on both ears) | % inhibition of TPA-induced ear edema (TPA-induced ear edema; dose 0.36 mg topical with TPA (1 nmol)) [%] | Wg/punch (TPA-induced ear edema; dose 0.12 topical with TPA (1 nmol) in acetone on both ears) | % inhibition of TPA-induced ear edema (TPA-induced ear edema; dose 0.12 topical with TPA (1 nmol)) [%] | % p21 [1, 2] [%] | Number of positive cells per 1 cm slide (p21) [1, 2] | Number of sunburn cells per 1 cm slide [1, 2] | Percent Of Sunburn cells [1, 2] | % p21 [1, 3] [%] | Number of positive cells per 1 cm slide (p21) [1, 3] | Number of sunburn cells per 1 cm slide [1, 3] | Percent Of Sunburn cells [1, 3] |
| --- | --- | --- | --- | --- | --- | --- | --- | --- | --- | --- | --- | --- |
| COc1cc(CCC(=O)CC(=O)CCc2ccc(O)c(OC)c2)ccc1O [THC3, tetrahydrocurcumin] | 8.1 ± 0.3 | 77.2 | 7.8 ± 0.3 | 81.0 |  |  |  |  |  |  |  |  |
| O=C(CC(=O)c1ccccc1)c1ccccc1 [DBM, dibenzoylmethane] |  |  |  |  | 1.2 | 33.5 ± 7.49 | 13.2 ± 5.35 | 1.2 | 2.2 | 60.6 ± 12.9 | 8.6 ± 1.78 | 0.9 |
